# Measured values as given in PubChem BioAssay AID1845219 (Molecular Pharmacology Branch, DTP, NCI, 2023).
# System: SYO-1 tumor spheroids, viability % test/control
# Assay: Anticancer human tumor SYO-1 cell line growth inhibition;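 also: spheroids exposed to agents for 7 days before viability read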;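 as to viability, T/C: 100% = DMSO vehicle control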
# Conditions: spheroids with HUVEC and MSC; for IC50: curve of first compound; for viability, T/C: stronger effect = lower value
# Outline: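 Complex tumor spheroids combined malignant cells with endothelial cells and mesenchymal stem cells. DNA-damaging drugs and DNA repair inhibitors were tested alone and in combination, at half-log dilutions down from clinical Cmax (top 10 microM if Cmax unknown), 0.25% DMSO final.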
# [1] = second compound 0.003 µM, first compound 0.0316 µM
# [2] = second compound 0.003 µM, first compound 0.1 µM
# [3] = second compound 0.003 µM, first compound 0.316 µM
# [4] = second compound 0.003 µM, first compound 1 µM
# [5] = second compound 0.003 µM, first compound 3.16 µM
# [6] = second compound 0.003 µM, first compound 10 µM
# [7] = second compound 0.00949 µM, first compound 0.0316 µM
# [8] = second compound 0.00949 µM, first compound 0.1 µM
# [9] = second compound 0.00949 µM, first compound 0.316 µM
# [10] = second compound 0.00949 µM, first compound 1 µM
# [11] = second compound 0.00949 µM, first compound 3.16 µM
# [12] = second compound 0.00949 µM, first compound 10 µM
# [13] = second compound 0.03 µM, first compound 0.0316 µM
# [14] = second compound 0.03 µM, first compound 0.1 µM
# [15] = second compound 0.03 µM, first compound 0.316 µM
# [16] = second compound 0.03 µM, first compound 1 µM
# [17] = second compound 0.03 µM, first compound 3.16 µM
# [18] = second compound 0.03 µM, first compound 10 µM
# [19] = second compound 0.0949 µM, first compound 0.0316 µM
# [20] = second compound 0.0949 µM, first compound 0.1 µM
# [21] = second compound 0.0949 µM, first compound 0.316 µM
# [22] = second compound 0.0949 µM, first compound 1 µM
# [23] = second compound 0.0949 µM, first compound 3.16 µM
# [24] = second compound 0.0949 µM, first compound 10 µM
# [25] = second compound 0.3 µM, first compound 0.0316 µM
# [26] = second compound 0.3 µM, first compound 0.1 µM
# [27] = second compound 0.3 µM, first compound 0.316 µM
# [28] = second compound 0.3 µM, first compound 1 µM
# [29] = second compound 0.3 µM, first compound 3.16 µM
# [30] = second compound 0.3 µM, first compound 10 µM
Structure (SMILES),IC50 (second compound 0.003 µM),IC50 (second compound 0.00949 µM),IC50 (second compound 0.03 µM),IC50 (second compound 0.0949 µM),IC50 (second compound 0.3 µM),"viability, T/C [1]","viability, T/C [2]","viability, T/C [3]","viability, T/C [4]","viability, T/C [5]","viability, T/C [6]","viability, T/C [7]","viability, T/C [8]","viability, T/C [9]","viability, T/C [10]","viability, T/C [11]","viability, T/C [12]","viability, T/C [13]","viability, T/C [14]","viability, T/C [15]",other results
CC(C)n1c(=O)n(C)c2cnc3cc(F)c(-c4ccc(OCCCN5CCCCC5)nc4)cc3c21 + CC[C@@]1(O)C(=O)OCc2c1cc1n(c2=O)Cc2cc3c(CN(C)C)c(O)ccc3nc2-1,< 0.0316 µM,< 0.0316 µM,< 0.0316 µM,< 0.0316 µM,< 0.0316 µM,7.3%,7.98%,8.08%,5.73%,1.45%,0.47%,2.88%,3.1%,2.8%,2.56%,1.27%,0.3%,2.53%,2.44%,2.23%,"viability, T/C [16]: 2.14%; viability, T/C [17]: 1.02%; viability, T/C [18]: 0.26%; viability, T/C [19]: 1.61%; viability, T/C [20]: 1.69%; viability, T/C [21]: 1.67%; viability, T/C [22]: 1.34%; viability, T/C [23]: 1.18%; viability, T/C [24]: 0.25%; viability, T/C [25]: 1.48%; viability, T/C [26]: 1.31%; viability, T/C [27]: 1.3%; viability, T/C [28]: 1.31%; viability, T/C [29]: 0.93%; viability, T/C [30]: 0.28%"
CC1COCCN1c1cc(-c2ccnn2C)c2ccnc(-c3ccn[nH]3)c2n1 (stereo not given) + CC[C@@]1(O)C(=O)OCc2c1cc1n(c2=O)Cc2cc3c(CN(C)C)c(O)ccc3nc2-1,< 0.0316 µM,< 0.0316 µM,< 0.0316 µM,< 0.0316 µM,< 0.0316 µM,2.41%,1.6%,1.52%,1.01%,0.46%,0.49%,1.89%,1.76%,1.42%,0.94%,0.47%,0.42%,1.75%,1.64%,1.18%,"viability, T/C [16]: 0.74%; viability, T/C [17]: 0.43%; viability, T/C [18]: 0.42%; viability, T/C [19]: 1.31%; viability, T/C [20]: 1.48%; viability, T/C [21]: 0.96%; viability, T/C [22]: 0.68%; viability, T/C [23]: 0.44%; viability, T/C [24]: 0.41%; viability, T/C [25]: 1.79%; viability, T/C [26]: 1.55%; viability, T/C [27]: 1.05%; viability, T/C [28]: 0.66%; viability, T/C [29]: 0.47%; viability, T/C [30]: 0.49%"
COc1cc(C)[nH]c(=O)c1CN1CCc2c(Cl)cc(C(OC)C3COC3)c(Cl)c2C1=O (stereo not given) + CC[C@@]1(O)C(=O)OCc2c1cc1n(c2=O)Cc2cc3c(CN(C)C)c(O)ccc3nc2-1,0.777 µM,< 0.0316 µM,< 0.0316 µM,< 0.0316 µM,< 0.0316 µM,99.8%,96.1%,71.5%,44.5%,33.9%,32.8%,22.7%,18.1%,8.42%,5.82%,5.77%,4.94%,1.81%,2.29%,2.26%,"viability, T/C [16]: 2.14%; viability, T/C [17]: 2.28%; viability, T/C [18]: 2.42%; viability, T/C [19]: 1.63%; viability, T/C [20]: 1.59%; viability, T/C [21]: 1.59%; viability, T/C [22]: 1.68%; viability, T/C [23]: 1.72%; viability, T/C [24]: 1.9%; viability, T/C [25]: 2%; viability, T/C [26]: 2.17%; viability, T/C [27]: 2.06%; viability, T/C [28]: 1.88%; viability, T/C [29]: 1.89%; viability, T/C [30]: 2.12%"
COc1ccc([C@@H](O)c2cc(-c3ncnc4cc(N5CCOCC5)ccc34)c(F)cc2Cl)nn1 + CC[C@@]1(O)C(=O)OCc2c1cc1n(c2=O)Cc2cc3c(CN(C)C)c(O)ccc3nc2-1,1.77 µM,< 0.0316 µM,< 0.0316 µM,< 0.0316 µM,< 0.0316 µM,94.3%,99.1%,94.7%,87.6%,11.8%,2.63%,41.7%,33.1%,44.8%,17.1%,1.57%,0.79%,1.67%,1.43%,1.42%,"viability, T/C [16]: 0.87%; viability, T/C [17]: 0.63%; viability, T/C [18]: 0.71%; viability, T/C [19]: 1.2%; viability, T/C [20]: 1.26%; viability, T/C [21]: 1.18%; viability, T/C [22]: 1.01%; viability, T/C [23]: 0.75%; viability, T/C [24]: 0.54%; viability, T/C [25]: 1.43%; viability, T/C [26]: 1.86%; viability, T/C [27]: 1.46%; viability, T/C [28]: 0.88%; viability, T/C [29]: 0.2%; viability, T/C [30]: 0.21%"
Cc1cc(C)c(CNC(=O)c2cc(-c3ccc(CN4CCOCC4)cc3)cc3c2cnn3C2CCCC2)c(=O)[nH]1 + CC[C@@]1(O)C(=O)OCc2c1cc1n(c2=O)Cc2cc3c(CN(C)C)c(O)ccc3nc2-1,8.35 µM,< 0.0316 µM,< 0.0316 µM,< 0.0316 µM,< 0.0316 µM,89.3%,90.5%,91.4%,91.9%,80.6%,43.9%,10.4%,9.41%,15.2%,12.5%,8.6%,3.78%,1.69%,1.58%,1.52%,"viability, T/C [16]: 1.59%; viability, T/C [17]: 1.68%; viability, T/C [18]: 2.01%; viability, T/C [19]: 1.54%; viability, T/C [20]: 1.74%; viability, T/C [21]: 1.49%; viability, T/C [22]: 1.89%; viability, T/C [23]: 2.19%; viability, T/C [24]: 1.93%; viability, T/C [25]: 1.86%; viability, T/C [26]: 1.8%; viability, T/C [27]: 2.05%; viability, T/C [28]: 2.19%; viability, T/C [29]: 2.23%; viability, T/C [30]: 1.83%"
[2H]c1nc(C)nc([2H])c1-c1cc(NC[C@@H](C)c2cccc3c(C(=O)NC)ccnc23)ncn1 + CC[C@@]1(O)C(=O)OCc2c1cc1n(c2=O)Cc2cc3c(CN(C)C)c(O)ccc3nc2-1,> 10 µM,< 0.0316 µM,< 0.0316 µM,< 0.0316 µM,< 0.0316 µM,92.5%,99.4%,94.6%,93%,92.3%,93.7%,25.9%,31.1%,28.9%,20%,19.2%,17.2%,1.86%,2.19%,1.77%,"viability, T/C [16]: 2.01%; viability, T/C [17]: 1.73%; viability, T/C [18]: 1.75%; viability, T/C [19]: 1.57%; viability, T/C [20]: 1.61%; viability, T/C [21]: 1.6%; viability, T/C [22]: 1.39%; viability, T/C [23]: 1.9%; viability, T/C [24]: 1.55%; viability, T/C [25]: 1.71%; viability, T/C [26]: 1.76%; viability, T/C [27]: 2.05%; viability, T/C [28]: 1.52%; viability, T/C [29]: 1.73%; viability, T/C [30]: 2.12%"
